Experimental data as given in ChEMBL document CHEMBL1255475, “Mutant prevention concentrations of four carbapenems against gram-negative rods” (2010).
In brackets after ≈: the same amount, converted by molar mass.

Tests used:
Escherichia coli [1] = assay: Ratio of mutant prevention concentration to minimum Inhibitory concentration for beta-lactamase-negative Escherichia coli E409; type: functional
Klebsiella pneumoniae [2] = assay: Ratio of mutant prevention concentration to minimum Inhibitory concentration for beta-lactamase-negative Klebsiella pneumoniae E362; type: functional
Escherichia coli [3] = assay: Antibacterial activity against beta-lactamase-negative Escherichia coli E425 incubated up to 7 days by agar dilution method; type: functional; conditions: E425, 168 h
Escherichia coli [4] = assay: Ratio of mutant prevention concentration to minimum Inhibitory concentration for beta-lactamase-positive ESBL-positive Escherichia coli E459; type: functional
Escherichia coli [5] = assay: Ratio of mutant prevention concentration to minimum Inhibitory concentration for beta-lactamase-positive ESBL-positive Escherichia coli E460; type: functional
Escherichia coli [6] = assay: Ratio of mutant prevention concentration to minimum Inhibitory concentration for beta-lactamase-negative Escherichia coli E424; type: functional
Escherichia coli [7] = assay: Ratio of mutant prevention concentration to minimum Inhibitory concentration for beta-lactamase-negative Escherichia coli E408; type: functional
Escherichia coli [8] = assay: Ratio of mutant prevention concentration to minimum Inhibitory concentration for beta-lactamase-positive ESBL-negative Escherichia coli E412; type: functional
Pseudomonas aeruginosa [9] = assay: Antibacterial activity against Pseudomonas aeruginosa P373 incubated up to 7 days by agar dilution method; type: functional; conditions: P373, 168 h
Pseudomonas aeruginosa [10] = assay: Ratio of mutant prevention concentration to minimum Inhibitory concentration for Pseudomonas aeruginosa P353; type: functional
Pseudomonas aeruginosa [11] = assay: Ratio of mutant prevention concentration to minimum Inhibitory concentration for Pseudomonas aeruginosa P327; type: functional
Pseudomonas aeruginosa [12] = assay: Ratio of mutant prevention concentration to minimum Inhibitory concentration for Pseudomonas aeruginosa P332; type: functional
Acinetobacter baumannii [13] = assay: Ratio of mutant prevention concentration to minimum Inhibitory concentration for Acinetobacter baumannii A901; type: functional
Acinetobacter baumannii [14] = assay: Ratio of mutant prevention concentration to minimum Inhibitory concentration for Acinetobacter baumannii A890; type: functional
Acinetobacter baumannii [15] = assay: Antibacterial activity against Acinetobacter baumannii A896 incubated for 24 h by agar dilution method; conditions: A896, 24 h
Acinetobacter baumannii [16] = assay: Antibacterial activity against Acinetobacter baumannii A890 incubated up to 7 days by agar dilution method; type: functional; conditions: A890, 168 h
Pseudomonas aeruginosa [17] = assay: Ratio of mutant prevention concentration to minimum Inhibitory concentration for Pseudomonas aeruginosa P338; type: functional
Acinetobacter baumannii [18] = assay: Ratio of mutant prevention concentration to minimum Inhibitory concentration for Acinetobacter baumannii A865; type: functional
Pseudomonas aeruginosa [19] = assay: Antibacterial activity against Pseudomonas aeruginosa P358 incubated up to 7 days by agar dilution method; type: functional; conditions: P358, 168 h
Pseudomonas aeruginosa [20] = assay: Ratio of mutant prevention concentration to minimum Inhibitory concentration for Pseudomonas aeruginosa P349; type: functional
Acinetobacter baumannii [21] = assay: Antibacterial activity against Acinetobacter baumannii A892 incubated for 24 h by agar dilution method; conditions: A892, 24 h
Acinetobacter baumannii [22] = assay: Ratio of mutant prevention concentration to minimum Inhibitory concentration for Acinetobacter baumannii A910; type: functional
Acinetobacter baumannii [23] = assay: Ratio of mutant prevention concentration to minimum Inhibitory concentration for Acinetobacter baumannii A931; type: functional
Pseudomonas aeruginosa [24] = assay: Ratio of mutant prevention concentration to minimum Inhibitory concentration for Pseudomonas aeruginosa P373; type: functional
Pseudomonas aeruginosa [25] = assay: Ratio of mutant prevention concentration to minimum Inhibitory concentration for Pseudomonas aeruginosa P322; type: functional
Acinetobacter baumannii [26] = assay: Ratio of mutant prevention concentration to minimum Inhibitory concentration for Acinetobacter baumannii A894; type: functional
Pseudomonas aeruginosa [27] = assay: Ratio of mutant prevention concentration to minimum Inhibitory concentration for Pseudomonas aeruginosa P323; type: functional
Acinetobacter baumannii [28] = assay: Antibacterial activity against Acinetobacter baumannii A894 incubated up to 7 days by agar dilution method; type: functional; conditions: A894, 168 h
Pseudomonas aeruginosa [29] = assay: Antibacterial activity against Pseudomonas aeruginosa P376 incubated up to 7 days by agar dilution method; type: functional; conditions: P376, 168 h
Escherichia coli [30] = assay: Antibacterial activity against beta-lactamase-negative Escherichia coli E424 after 24 hrs by agar dilution method; conditions: E424, 24 h
Pseudomonas aeruginosa [31] = assay: Antibacterial activity against Pseudomonas aeruginosa P352 after 24 hrs by agar dilution method; type: functional; conditions: P352, 24 h
Acinetobacter baumannii [32] = assay: Antibacterial activity against Acinetobacter baumannii A928 after 24 hrs by agar dilution method; type: functional; conditions: A928, 24 h
Klebsiella pneumoniae [33] = assay: Antibacterial activity against beta-lactamase-positive ESBL-negative Klebsiella pneumoniae E507 after 24 hrs by agar dilution method; type: functional; conditions: E507, 24 h
Pseudomonas aeruginosa [34] = assay: Antibacterial activity against Pseudomonas aeruginosa P356 after 24 hrs by agar dilution method; conditions: P356, 24 h
Pseudomonas aeruginosa [35] = assay: Antibacterial activity against Pseudomonas aeruginosa P319 after 24 hrs by agar dilution method; type: functional; conditions: P319, 24 h
Acinetobacter baumannii [36] = assay: Antibacterial activity against Acinetobacter baumannii A910 after 24 hrs by agar dilution method; type: functional; conditions: A910, 24 h
Pseudomonas aeruginosa [37] = assay: Antibacterial activity against Pseudomonas aeruginosa P323 after 24 hrs by agar dilution method; conditions: P323, 24 h
Acinetobacter baumannii [38] = assay: Antibacterial activity against Acinetobacter baumannii A901 after 24 hrs by agar dilution method; type: functional; conditions: A901, 24 h
Klebsiella pneumoniae [39] = assay: Antibacterial activity against beta-lactamase-negative Klebsiella pneumoniae E360 after 24 hrs by agar dilution method; type: functional; conditions: E360, 24 h
Escherichia coli [40] = assay: Antibacterial activity against beta-lactamase-positive ESBL-negative Escherichia coli E412 after 24 hrs by agar dilution method; conditions: E412, 24 h
Escherichia coli [41] = assay: Antibacterial activity against beta-lactamase-negative Escherichia coli E346 after 24 hrs by agar dilution method; conditions: E346, 24 h
Acinetobacter baumannii [42] = assay: Antibacterial activity against Acinetobacter baumannii A892 after 24 hrs by agar dilution method; type: functional; conditions: A892, 24 h
Escherichia coli [43] = assay: Antibacterial activity against beta-lactamase-positive ESBL-negative Escherichia coli E430 after 24 hrs by agar dilution method; conditions: E430, 24 h
Klebsiella pneumoniae [44] = assay: Antibacterial activity against beta-lactamase-positive ESBL-positive Klebsiella pneumoniae E453 after 24 hrs by agar dilution method; type: functional; conditions: E453, 24 h
Pseudomonas aeruginosa [45] = assay: Antibacterial activity against Pseudomonas aeruginosa P335 after 24 hrs by agar dilution method; conditions: P335, 24 h
Acinetobacter baumannii [46] = assay: Antibacterial activity against Acinetobacter baumannii A849 after 24 hrs by agar dilution method; type: functional; conditions: A849, 24 h
Escherichia coli [47] = assay: Antibacterial activity against beta-lactamase-positive ESBL-positive Escherichia coli E459 after 24 hrs by agar dilution method; conditions: E459, 24 h
Escherichia coli [48] = assay: Antibacterial activity against beta-lactamase-negative Escherichia coli E408 after 24 hrs by agar dilution method; conditions: E408, 24 h
Acinetobacter baumannii [49] = assay: Antibacterial activity against Acinetobacter baumannii A884 after 24 hrs by agar dilution method; type: functional; conditions: A884, 24 h
Pseudomonas aeruginosa [50] = assay: Antibacterial activity against Pseudomonas aeruginosa P370 after 24 hrs by agar dilution method; conditions: P370, 24 h
Pseudomonas aeruginosa [51] = assay: Antibacterial activity against Pseudomonas aeruginosa P363 after 24 hrs by agar dilution method; conditions: P363, 24 h
Klebsiella pneumoniae [52] = assay: Antibacterial activity against beta-lactamase-positive ESBL-negative Klebsiella pneumoniae E481 after 24 hrs by agar dilution method; type: functional; conditions: E481, 24 h
Escherichia coli [53] = assay: Antibacterial activity against beta-lactamase-positive ESBL-positive Escherichia coli E456 after 24 hrs by agar dilution method; conditions: E456, 24 h

C[C@@H](O)[C@H]1C(=O)N2C(C(=O)O)=C(S[C@@H]3CN[C@H](C(=O)Nc4cccc(C(=O)O)c4)C3)[C@H](C)[C@H]12
Ratio (Escherichia coli [1]): 8
Ratio (Klebsiella pneumoniae [2]): 4
MIC (Escherichia coli [3]): 0.008 mg/L (≈ 0.0168 µM)
Ratio (Escherichia coli [4]): 2
Ratio (Escherichia coli [5]): 4
Ratio (Escherichia coli [6]): 4
Ratio (Escherichia coli [7]): 4
Ratio (Escherichia coli [8]): 16

C[C@@H](O)[C@H]1C(=O)N2C(C(=O)O)=C(S[C@@H]3CN[C@H](CNS(N)(=O)=O)C3)[C@H](C)[C@H]12 [DORIPENEM]
Ratio (Escherichia coli [1]): 4
MIC (Pseudomonas aeruginosa [9]): 0.5 mg/L (≈ 1.19 µM)
Ratio (Pseudomonas aeruginosa [10]): 4
Ratio (Pseudomonas aeruginosa [11]): 16
Ratio (Pseudomonas aeruginosa [12]): >16
Ratio (Klebsiella pneumoniae [2]): 2
MIC (Escherichia coli [3]): 0.03 mg/L (≈ 0.0713 µM)
Ratio (Acinetobacter baumannii [13]): 2
Ratio (Acinetobacter baumannii [14]): 4
MIC (Acinetobacter baumannii [15]): 0.5 mg/L (≈ 1.19 µM)
Ratio (Escherichia coli [4]): 4
MIC (Acinetobacter baumannii [16]): 0.25 mg/L (≈ 0.595 µM)
Ratio (Escherichia coli [5]): 4
Ratio (Escherichia coli [6]): 2
Ratio (Pseudomonas aeruginosa [17]): 16
Ratio (Escherichia coli [7]): 2
Ratio (Acinetobacter baumannii [18]): 8
MIC (Pseudomonas aeruginosa [19]): 8 mg/L (≈ 19 µM)
Ratio (Pseudomonas aeruginosa [20]): 16
MIC (Acinetobacter baumannii [21]): 4 mg/L (≈ 9.51 µM)
Ratio (Acinetobacter baumannii [22]): 2
Ratio (Escherichia coli [8]): 4
Ratio (Acinetobacter baumannii [23]): 2
Ratio (Pseudomonas aeruginosa [24]): >8
Ratio (Pseudomonas aeruginosa [25]): 8
Ratio (Acinetobacter baumannii [26]): 4
Ratio (Pseudomonas aeruginosa [27]): 8
MIC (Acinetobacter baumannii [28]): 0.5 mg/L (≈ 1.19 µM)
MIC (Pseudomonas aeruginosa [29]): 0.5 mg/L (≈ 1.19 µM)

C[C@@H](O)[C@H]1C(=O)N2C(C(=O)O)=C(SCCNC=N)C[C@H]12 [IMIPENEM ANHYDROUS]
MIC (Escherichia coli [30]): 0.125 mg/L (≈ 0.418 µM)
MIC (Pseudomonas aeruginosa [31]): 8 mg/L (≈ 26.7 µM)
MIC (Acinetobacter baumannii [32]): 0.5 mg/L (≈ 1.67 µM)
MIC (Klebsiella pneumoniae [33]): 2 mg/L (≈ 6.68 µM)
MIC (Pseudomonas aeruginosa [34]): 2 mg/L (≈ 6.68 µM)
MIC (Pseudomonas aeruginosa [35]): 8 mg/L (≈ 26.7 µM)
MIC (Acinetobacter baumannii [36]): 0.5 mg/L (≈ 1.67 µM)
MIC (Pseudomonas aeruginosa [37]): 2 mg/L (≈ 6.68 µM)
MIC (Acinetobacter baumannii [38]): 2 mg/L (≈ 6.68 µM)
MIC (Klebsiella pneumoniae [39]): 0.25 mg/L (≈ 0.835 µM)
MIC (Escherichia coli [40]): 0.25 mg/L (≈ 0.835 µM)
MIC (Escherichia coli [41]): 0.125 mg/L (≈ 0.418 µM)
MIC (Acinetobacter baumannii [42]): 4 mg/L (≈ 13.4 µM)
MIC (Escherichia coli [43]): 0.5 mg/L (≈ 1.67 µM)
MIC (Klebsiella pneumoniae [44]): 0.125 mg/L (≈ 0.418 µM)
MIC (Pseudomonas aeruginosa [45]): 1 mg/L (≈ 3.34 µM)
MIC (Acinetobacter baumannii [46]): 4 mg/L (≈ 13.4 µM)
MIC (Escherichia coli [47]): 0.25 mg/L (≈ 0.835 µM)
MIC (Escherichia coli [48]): 0.125 mg/L (≈ 0.418 µM)
MIC (Acinetobacter baumannii [49]): 1 mg/L (≈ 3.34 µM)
MIC (Pseudomonas aeruginosa [50]): 1 mg/L (≈ 3.34 µM)
MIC (Pseudomonas aeruginosa [51]): 2 mg/L (≈ 6.68 µM)
MIC (Klebsiella pneumoniae [52]): 4 mg/L (≈ 13.4 µM)
MIC (Escherichia coli [53]): 0.125 mg/L (≈ 0.418 µM)

C[C@@H](O)[C@H]1C(=O)N2C(C(=O)O)=C(S[C@@H]3CN[C@H](C(=O)N(C)C)C3)[C@H](C)[C@H]12 [MEROPENEM]
MIC (Pseudomonas aeruginosa [9]): 0.5 mg/L (≈ 1.3 µM)
MIC (Acinetobacter baumannii [15]): 1 mg/L (≈ 2.61 µM)
MIC (Acinetobacter baumannii [16]): 0.5 mg/L (≈ 1.3 µM)
MIC (Pseudomonas aeruginosa [19]): 8 mg/L (≈ 20.9 µM)
MIC (Acinetobacter baumannii [21]): 8 mg/L (≈ 20.9 µM)
MIC (Acinetobacter baumannii [28]): 1 mg/L (≈ 2.61 µM)
MIC (Pseudomonas aeruginosa [29]): 1 mg/L (≈ 2.61 µM)
